Reference: article PMC6382835, “A critical evaluation of TRPA1-mediated locomotor behavior in zebrafish as a screening tool for novel anti-nociceptive drug discovery” (Scientific Reports, 2019)

Test system: C57BL/6 mice
Assay: Von Frey test of mechanical hypersensitivity
Format: in vivo, Mice (Mus musculus)
Experimental: We utilized WT C57BL/6 mice purchased from Envigo (Indianapolis, IN, USA). Total sixteen adult male mice (8–9 weeks, 22 ± 2 g) were housed in four ventilated Plexiglas cages (4 mice per cage). Four mice were tested in each group. Mice are maintained at temperature (21 °C) in an animal housing facility accredited by the Association for Assessment and Accreditation of Laboratory Animal Care with a reversed 12-hour dark-light cycle (lights off at 1000, lights on at 2200). This study was carried out in accordance with the recommendations of the National Institutes of Health Guide for the Care and Use of Laboratory Animals. The protocol (#1201000592 by Y.F.L. for Zebrafish, and #1605001408 by R.M.vR for mice) was approved by the Purdue University Institutional Animal Care and Use Committee.
Von Frey filaments (2.44 (0.04 g)–4.31 (2 g)) and a grid platform (#58011 and #57816, Stoelting, WI, USA) were used to test mechanical hypersensitivity of mice. A modified up-and-down method was utilized as previously described. […] Drug-induced mechanical hypersensitivity was measured 30 minutes after the second injection. […]
All data are presented as means ± standard error of the mean (SEM). For our in vitro statistical analysis, AUC of calcium influx (RFU) was measured to plot dose-response curves, which were further analyzed by nonlinear regression analysis. […] EC50 values of the dose-response curves were further used to plot Schild curves, and the curves were analyzed with linear regression analysis. For the mice von Frey test, mechanical thresholds were analyzed with two-way ANOVA followed by a Bonferonni test for multiple comparison analysis. […] AUC of all curves were measured and analyzed by one-way ANOVA. […] For our time-course average displacement graph, we used 2nd degree polynomial smoothing for a better representation; however, we used data before smoothing for all statistical analysis and quantification. All in vitro and in vivo data were evaluated using GraphPad Prism 7 (GraphPad Software, La Jolla, CA) unless it stated otherwise.

Structure (SMILES)	block of ASP7663-induced mechanical hypersensitivity (HC-030031 100 mg/kg p.o. 30 min before ASP7663 1 mg/kg i.p.)	mechanical thresholds of von Frey filaments, pre- vs post-drug (HC-030031 100 mg/kg p.o. alone)	mechanical thresholds of von Frey filaments, pre- vs post-drug (ASP7663 1 mg/kg i.p., measured 30 minutes after injection)
CC(C)c1ccc(NC(=O)Cn2cnc3c2c(=O)n(C)c(=O)n3C)cc1 [HC-030031]	blocked mechanical hypersensitivity induced by ASP7663	did not show a statistical significance between pre- and post-drug mechanical thresholds	
CC(C)CN1C(=O)/C(=C/C(=O)O)c2cccc(F)c21 [ASP7663]			significantly decreased mechanical thresholds
